Test results published in paper PMC10846744, “Cathelicidin peptide analogues inhibit EV71 infection through blocking viral entry and uncoating” (PLOS Pathogens, 2024).
Where no end group is shown, it is not given here.

Tests used:
[1] = test system: EV71 virus; assay: Time-of-addition study; type: cell-based, enterovirus 71 (EV71)
Experimental: Fig 2 LL-18 and FF-18 inhibit EV71 infection at the early stages of infection. (A-B) NanoLuc-EV71 reporter virus (A) or EV71 virus (MOI = 1, B) was pre-incubated with 1.5 μM LL-18 or FF-18 for 1 hr before they were used to infect RD cells. Luciferase (A) or viral RNA (B) was determined at indicated time points. Viral RNAs were normalized to mock treated cells at 1 h.p.i. ***, P<0.001. (C-E) EV71 virus (MOI = 1) was either pre-incubated with 1.5 μM LL-18 before infection (-2 and -1 time points), added simultaneously with LL-18 (0 time point) or LL-18 was added at indicated time points post-infection (1, 2, 4, 7 time points) and viral VP1 expression (C), cell viability (D), or viral titer (E) was determined 24 h.p.i. ns, not significant; **, P<0.01; ***, P<0.001. (F-H) EV71 virus (MOI = 1) was either pre-incubated with 1.5 μM FF-18 before infection (-2 and -1 time points), added simultaneously with FF-18 (0 time point) or FF-18 was added at indicated time points post-infection (1, 2, 4, 7 time points) and viral VP1 expression (F), cell viability (G), or viral titer (H) was determined 24 h.p.i. ns, not significant; **, P<0.01; ***, P<0.001.
Synthetic peptides were purchased from Bioyears Co. Ltd. (Wuhan, China) with purity of more than 95% and dissolved in PBS. […] Cell viability, viral titer, or viral protein expression was determined 24 h.p.i. […]

[2] = test system: EV71 virus-SCARB2 interaction; assay: Virus-SCARB2 co-immunoprecipitation competition; type: binding; settings: SCARB2-Flag 293T lysates incubated with EV71 virus with or without compound, anti-Flag IP, anti-VP1 immunoblotting
Experimental: Fig 5 LL-18 interferes with virus-SCARB2 interaction. (A) Molecular docking model of LL-18 with EV71 virion. […] The amino acid residues of capsid protein interacting with both LL-18 and SCARB2 are indicated (right panel). (B) 293T cells expressing SCARB2-Flag were lysed and cell lysates were incubated with EV71 virus in the absence or presence of the indicated amount of LL-18. Cell lysates were then immunoprecipitated with anti-Flag antibody and the precipitated virus was determined with anti-VP1 antibody. (C) 293T cells expressing Annexin 2-Flag were lysed and cell lysates were incubated with EV71 virus in the absence or presence of LL-18. Cell lysates were then immunoprecipitated with anti-Flag antibody and the precipitated virus was determined with anti-VP1 antibody.
Coimmunoprecipitation was performed as previously described. Briefly, VP1, VP2, and VP3 were PCR amplified and cloned into pcDNA3.1 with an HA tag. LL-18 or LL-37 encoding oligonucleotides were inserted into an eGFP-expressing construct (pHW200-eGFP). […] After washing with wash buffer (0.05% Triton X-100) six times, samples were analyzed by Western blotting.
Supplementary file ppat.1011967.s004.tif: S4 Fig Compound 12s interferes with virus-SCARB2 interaction. […] Cell lysates were then immunoprecipitated with anti-Flag antibody and the precipitated virus was determined with anti-VP1 antibody. […]

[3] = test system: mouse-adapted EV71 (mEV71); assay: mEV71 infection model in 6-day-old ICR mice; type: in vivo
Experimental: Fig 7 LL-18 inhibits mEV71 infection in vivo. (A) mEV71 was pre-treated with PBS or LL-18 and used to infect 6-day old ICR mice. The survival rate of mice infected with the mEV71 virus with or without LL-18 was recorded. (B) Mice infected with the mEV71 virus with or without LL-18 pre-treatment were sacrificed 1 day post infection (d.p.i.) and viral titers from brain and muscle tissues were determined. ***, P<0.001. (C) H&E staining of muscle tissue from mice infected with the mEV71 virus with or without LL-18. Blue arrows indicate infiltrated neutrophils. Bar, 20μm.
To prepare the mouse-adapted EV71 strain, the parental EV71 virus was intraperitoneally (i.p.) inoculated into 3-day-old ICR mice. Virus was then isolated from the brain tissue and inoculated into RD cells to amplify virus. […] 1×10^9 PFU/ml mEV71 was then incubated with an equal volume of PBS or LL-18 (20 mg/kg) for one hour, and used to infect 6-day-old ICR newborn mice intraperitoneally. Mice were monitored daily to record survival rate. Meanwhile, brain and muscle tissues were collected 1-day post infection for viral titration or H&E staining.
Supplementary file ppat.1011967.s005.tif: S5 Fig LL-18 inhibits mEV71 infection in vivo. (A) 6-day-old ICR mice were infected with parental EV71 or mouse-adapted virus (mEV71) and the mice survival rate was determined. (B) RD cells infected with mEV71 pre-incubated with PBS or LL-18 for 1 hr were determined for virus titer 24 h.p.i. ***, P<0.001. (C) ICR mice infected with mEV71 or mEV71 pre-incubated with the indicated amount of LL-18 were sacrificed at 1 d.p.i. and viral titers from muscle were determined. ns, not significant; ***, P<0.001. (TIF) Click here for additional data file.

## FRKSKEKIGKLFKRIVQRILDFLRNLV [LL-18]
[1]
  inhibition of VP1 expression, virus-induced cell death, virus titer; peptide added after virus infection: little inhibition
  inhibition of VP1 expression, virus-induced cell death, virus titer; peptide added before virus infection: Potent inhibition
[2]
  inhibition of EV71 virus binding to SCARB2: inhibit virus binding to SCARB2 in a dose-dependent manner
[3]; 6-day-old ICR mice, mEV71 pre-incubated 1 hour with LL-18 (20mg/kg), intraperitoneal
  survival rate of infected suckling mice: could increase the sucking mouse survival rate
[3]; 6-day-old ICR mice, mEV71 pre-incubated with LL-18 (20mg/kg), i.p., 1 d.p.i
  viral loads of brain and muscle: significantly decreased the viral loads in both brain and muscle
[3]; 6-day-old ICR mice, mEV71 with LL-18 (20mg/kg)
  inflammatory cell infiltration in muscle (H&E histology): improved with the administration of LL-18
[3]; ICR mice, mEV71 pre-incubated with 20 mg/kg LL-18, 1 d.p.i. (S5C Fig)
  viral load in muscle, dose finding: could significantly reduce the viral load
